# Reference: patent US8486464B2, “Herbal composition for angina pectoris, method to prepare same and uses thereof” (Tasly Pharmaceutical Group Co. Ltd., priority 2000, dated 2013)
# Key:
# Format in all cases: in vivo
# [1] = system: SOD, MDA; assay: Rat M-IR damage: SOD activity and MDA content in blood serum; conditions: Wistar, 2 hrs after duodenal dosing, DSP 3.0 g/kg, Ditiazem 30 mg/kg
# Protocol: (1) Experimental Groups. Control group (Serum taken as normal control), Model group (Normal Saline), Ditiazem group (30 mg/kg), DSP 6.0, 3.0 g/kg group. Each group was diluted to its necessary concentration with 3 ml/kg normal saline through the duodenum.
# (2) Experimental Method. Wistar animal is anesthetized by pentobarbital sodium and fixed. Chests and cardial membranes are opened to expose the heart. A hole in the left lower dorsal part of the coronary artery is left for tying. Separate the duodenum, and infuse the tested drugs into it. Take blood from the abdomen after 2 hrs and test the MDA and SOD content in the blood serum.
# [2] = system: myocardial ischemia; assay: Dog acute myocardial ischemia: level and area by ECG (Σ-ST, N-ST); conditions: dogs, Dan Shen Pill 2 g/kg, Ditiazem 5 mg/kg
# Protocol: (§1) 1.1 Experimental Groups. (1) Blank control group, normal saline 3 ml/kg; (2) DSP group, 2 g natural drug/kg; (3) positive control group, Ditiazem, 5 mg/kg. All the above samples are diluted with normal saline to the same volume of 3 ml/kg and were given to the patient through the duodenum.
# (§2) 1.2 Experimental Method. The dogs are anesthetized with pentobarbital sodium. Chests were opened and coronary arterioles and the central part of the dorsal lower branch separated and tied to create an acute myocardial ischemia model. ECGs were recorded and the level of myocardial ischemia (increased section ST, ST) and area of myocardial ischemia (the total increased decimal places in section ST) were calculated. The oxygen content in the coronary artery was recorded. Blood serum creatine kinase (CK), lactate dehydrogenase (LDH), ET, TXB2 and 6-Keto-PGF1 were measured. The oxygen content of the aorta and coronary vein, and blood flow volume in the coronary arteries were measured to calculate myocardial oxygen consumption. Blood oxygen content in the coronary vein was measured to calculate myocardial oxygen content (myocardial oxygen content=(blood oxygen content in arteries-blood oxygen content in coronary veins)×blood flow volume in coronary artery/100).
# (§3) The significance of the experimental results was tested by the t-testing method.
# [3] = system: ET, TXB2, 6-Keto-PGF1α; assay: Dog plasma ET, TXB2, 6-Keto-PGF1α; parameters: 6-Keto-PGF1α: unit not given beside the values; conditions: dogs, Dan Shen Pill 2 g/kg, Diltiazem 5 mg/kg
# Protocol: as §1, §2
# [4] = system: venous blood oxygen content; assay: Dog coronary venous blood oxygen content; conditions: dogs, Dan Shen Pill 2 g/kg, Ditiazem 5 mg/kg
# Protocol: as §1, §2
# [5] = system: myocardial infarction; assay: Dog myocardial infarction area (N-BT); conditions: dogs; Dan Shen Pill 2 g/kg, Ditiazem 5 mg/kg
# Protocol: as §1
# The hearts were removed 180 mins after treatment and weighed, cut into slices, and colored with N-BT. The infarction area of each slice (N-BT-uncolorized area) and non-infarction area (N-BT colorized area) were measured. The percentage occupied by the infarction area in the ventricles was calculated and the whole heart was weighted.
# as §3
structure (smiles),measurement,setting,value
COc1ccc([C@@H]2Sc3ccccc3N(CCN(C)C)C(=O)[C@@H]2OC(C)=O)cc1 [Ditiazem],"MDA, blood serum",[1],5.29 ± 1.07 (μ mol/L) × 10^−3
same,"SOD, blood serum",[1],817.6 ± 115.6 U/ml
same,N-ST,[2]; 15 min after dosage,29.80
same,"N-ST, changing in percentage (before dosage = 100%)",[2]; 15 min after dosage,99.33%
same,Σ-ST,[2]; 15 min after dosage,277.80
same,"Σ-ST, changing in percentage (before dosage = 100%)",[2]; 15 min after dosage,91.83%
same,N-ST,[2]; 30 min after dosage,29.60
same,"N-ST, changing in percentage (before dosage = 100%)",[2]; 30 min after dosage,98.67%
same,Σ-ST,[2]; 30 min after dosage,226.20
same,"Σ-ST, changing in percentage (before dosage = 100%)",[2]; 30 min after dosage,74.87%
same,N-ST,[2]; 45 min after dosage,29.20
same,"N-ST, changing in percentage (before dosage = 100%)",[2]; 45 min after dosage,97.33%
same,Σ-ST,[2]; 45 min after dosage,213.40
same,"Σ-ST, changing in percentage (before dosage = 100%)",[2]; 45 min after dosage,70.59%
same,N-ST,[2]; 60 min after dosage,28.40
same,"N-ST, changing in percentage (before dosage = 100%)",[2]; 60 min after dosage,94.67%
same,Σ-ST,[2]; 60 min after dosage,186.20
same,"Σ-ST, changing in percentage (before dosage = 100%)",[2]; 60 min after dosage,61.61%
same,N-ST,[2]; 90 min after dosage,27.00
same,"N-ST, changing in percentage (before dosage = 100%)",[2]; 90 min after dosage,90.00%
same,Σ-ST,[2]; 90 min after dosage,175.20
same,"Σ-ST, changing in percentage (before dosage = 100%)",[2]; 90 min after dosage,57.95%
same,N-ST,[2]; 120 min after dosage,26.80
same,"N-ST, changing in percentage (before dosage = 100%)",[2]; 120 min after dosage,89.33%
same,Σ-ST,[2]; 120 min after dosage,468.00
same,"Σ-ST, changing in percentage (before dosage = 100%)",[2]; 120 min after dosage,55.60%
same,N-ST,[2]; 180 min after dosage,25.20
same,"N-ST, changing in percentage (before dosage = 100%)",[2]; 180 min after dosage,84.00%
same,Σ-ST,[2]; 180 min after dosage,122.80
same,"Σ-ST, changing in percentage (before dosage = 100%)",[2]; 180 min after dosage,40.63%
same,N-ST,[2]; before dosage,30.00
same,Σ-ST,[2]; before dosage,302.80
same,6-Keto-PGF1α,[3]; 30 min after dosage,1749.4 ± 278.3
same,"6-Keto-PGF1α, changing in percentage (before dosage = 100%)",[3]; 30 min after dosage,118.95 ± 14.47 %
same,"ET, changing in percentage (before dosage = 100%)",[3]; 30 min after dosage,85.14 ± 13.98 %
same,"TXB2, changing in percentage (before dosage = 100%)",[3]; 30 min after dosage,101.14 ± 17.90 %
same,blood plasma ET,[3]; 30 min after dosage,47.51 ± 7.39 pg/mL
same,blood plasma TXB2,[3]; 30 min after dosage,143.40 ± 28.64 pg/mL
same,6-Keto-PGF1α,[3]; 60 min after dosage,1902.6 ± 155.1
same,"6-Keto-PGF1α, changing in percentage (before dosage = 100%)",[3]; 60 min after dosage,131.19 ± 16.98 %
same,"ET, changing in percentage (before dosage = 100%)",[3]; 60 min after dosage,84.06 ± 18.24 %
same,"TXB2, changing in percentage (before dosage = 100%)",[3]; 60 min after dosage,92.58 ± 15.17 %
same,blood plasma ET,[3]; 60 min after dosage,46.38 ± 9.02 pg/mL
same,blood plasma TXB2,[3]; 60 min after dosage,134.40 ± 46.48 pg/mL
same,6-Keto-PGF1α,[3]; 90 min after dosage,1912.4 ± 258.5
same,"6-Keto-PGF1α, changing in percentage (before dosage = 100%)",[3]; 90 min after dosage,132.75 ± 28.52 %
same,"ET, changing in percentage (before dosage = 100%)",[3]; 90 min after dosage,71.69 ± 12.10 %
same,"TXB2, changing in percentage (before dosage = 100%)",[3]; 90 min after dosage,69.72 ± 8.76 %
same,blood plasma ET,[3]; 90 min after dosage,39.97 ± 7.95 pg/mL
same,blood plasma TXB2,[3]; 90 min after dosage,1093.4 ± 320.9 pg/mL
same,6-Keto-PGF1α,[3]; 120 min after dosage,1982.8 ± 574.2
same,"6-Keto-PGF1α, changing in percentage (before dosage = 100%)",[3]; 120 min after dosage,139.39 ± 56.36 %
same,"ET, changing in percentage (before dosage = 100%)",[3]; 120 min after dosage,74.30 ± 17.04 %
same,"TXB2, changing in percentage (before dosage = 100%)",[3]; 120 min after dosage,63.03 ± 14.20 %
same,blood plasma ET,[3]; 120 min after dosage,41.42 ± 15.69 pg/mL
same,blood plasma TXB2,[3]; 120 min after dosage,1284.1 ± 695.0 pg/mL
same,6-Keto-PGF1α,[3]; 180 min after dosage,1705.2 ± 412.2
same,"6-Keto-PGF1α, changing in percentage (before dosage = 100%)",[3]; 180 min after dosage,119.08 ± 39.78%
same,"ET, changing in percentage (before dosage = 100%)",[3]; 180 min after dosage,82.16 ± 14.09 %
same,"TXB2, changing in percentage (before dosage = 100%)",[3]; 180 min after dosage,62.77 ± 14.51 %
same,blood plasma ET,[3]; 180 min after dosage,45.74 ± 9.40 pg/mL
same,blood plasma TXB2,[3]; 180 min after dosage,1032.7 ± 343.1 pg/mL
same,6-Keto-PGF1α,[3]; after hypoxia before dosage,1478.8 ± 218.6
same,"6-Keto-PGF1α, changing in percentage",[3]; after hypoxia before dosage,92.3 ± 5.53%
same,"ET, changing in percentage",[3]; after hypoxia before dosage,178.30 ± 57.33%
same,"TXB2, changing in percentage",[3]; after hypoxia before dosage,101.14 ± 19.90 %
same,blood plasma ET,[3]; after hypoxia before dosage,55.51 ± 3.59 pg/mL
same,blood plasma TXB2,[3]; after hypoxia before dosage,143.40 ± 28.64 pg/mL
same,6-Keto-PGF1α,[3]; before hypoxia (normal value),1597.4 ± 185.3
same,blood plasma ET,[3]; before hypoxia (normal),34.41 ± 9.41 pg/mL
same,blood plasma TXB2,[3]; before hypoxia (normal),106.40 ± 19.12 pg/mL
same,"VO2, changing percentage (before dosage = 100%)",[4]; 30 min after dosage,97.70 ± 10.36%
same,venous oxygen volume (VO2),[4]; 30 min after dosage,16.08 ± 1.13 ml %
same,"VO2, changing percentage (before dosage = 100%)",[4]; 60 min after dosage,95.95 ± 8.27%
same,venous oxygen volume (VO2),[4]; 60 min after dosage,15.84 ± 1.43 ml %
same,"VO2, changing percentage (before dosage = 100%)",[4]; 90 min after dosage,96.37 ± 5.54%
same,venous oxygen volume (VO2),[4]; 90 min after dosage,15.92 ± 1.29 ml %
same,"VO2, changing percentage (before dosage = 100%)",[4]; 120 min after dosage,92.15 ± 9.42%
same,venous oxygen volume (VO2),[4]; 120 min after dosage,15.20 ± 1.50 ml %
same,"VO2, changing percentage (before dosage = 100%)",[4]; 180 min after dosage,89.62 ± 11.94%
same,venous oxygen volume (VO2),[4]; 180 min after dosage,14.82 ± 2.28 ml %
same,venous oxygen volume (VO2),[4]; after hypoxia (value before dosage),16.56 ± 1.61 ml %
same,"VO2, changing percentage","[4]; after hypoxia, before dosage",111.45 ± 33.86%
same,venous oxygen volume (VO2),[4]; before hypoxia (normal value),15.44 ± 2.42 ml %
same,Area of Cardiac Chamber,[5],5377.8 ± 411.2 mm2
same,Area of Infarction,[5],378.98 ± 138.41 mm2
same,Infarction Location/Cardiac Chamber,[5],7.22 ± 2.87
same,Infarction Location/Heart,[5],2.52 ± 1.35
same,Myocardial area,[5],14096.5 ± 3056.4 mm2
